In patent US12011497B2, “Compounds, compositions containing same, and use thereof for promoting hair growth” (Molgenbio Co. Ltd., priority 2018, dated 2024):
Converted amounts (≈) assume the structure as drawn.

Key:
CD4+ T cells = assay: in vitro T cell activity assay (CTV-stained CD4+ T cell proliferation, flow cytometry); type: cell-based; details: B6J mouse spleen CD4+ T cells activated with CD3/CD28 Dynabeads, 72 hours incubation, 0.01-1000 ng/mL, CTV intensity
Excerpt: The degrees of decreases in immunosuppressive activity of the nine novel compounds were identified by a known in vitro T cell activity assay (J. Immunol. 143:718-726, 1989).
CD4+ T cell division is an indicator of immune response. When CD4+ T cells stained with Cell Trace™ Violet (CTV) proliferate by immune responses, the amount of CTV of each cell decreases, and thus the degrees of immunosuppressive activity were identified using this as an indicator.
Single cells were isolated from spleen of 6- to 8-week-old B6J experimental mice, and CD4+ T cells were isolated using a MagniSort® Mouse CD4 T cell Enrichment Kit (eBioscience). CD4+ T cells were stained with a Cell Trace™ Violet (CTV) Cell Proliferation Kit (Molecular Probes), and FK506 or the nine novel compounds were added thereto in concentrations of 0.01 ng/mL, 0.1 ng/mL, 1 ng/mL, 10 ng/mL, 100 ng/mL, and 1000 ng/mL, respectively, followed by incubation for 72 hours. In order to activate T cells, Dynabeads® Mouse T-Activator CD3/CD28 (Gibco) was used. As a control, inactivated T cells were used. After incubation, CTV intensity was analyzed by flow cytometry.
Table 12 below and FIG. 55 show the degrees of T cell proliferation based on CTV intensities measured using a flow cytometer, indicating the degrees of immunosuppressive activity of FK506 and the nine novel compounds.

vibrissae tissue of mice = assay: hair growth-promoting activity in cultured isolated mouse vibrissae; type: cell-based; details: histology of cultured treated vibrissae, FIG. 58
Experimental: Hair growth-promoting activity of the nine novel compounds of the present invention relative to that of the parent drug (FK506) was evaluated using vibrissae tissue of mice. The mouth and mouth tissue (whisker pad) around the mouth where thick hair grows were peeled off from each of 6- to 8-week-old experimental black mouse (C57BL/6 mouse) and treated with […] for a short time of several seconds. The treated mouth tissue was prepared in a state of being immersed in phosphate-buffered saline (PBS) supplemented with 1% penicillin/streptomycin (P/S) on ice. Surrounding subcutaneous fat tissue and connective tissue were removed using forceps and blades while observing the prepared mouth tissue using a dissecting microscope to expose vibrissae tissue. […] Based on the results, it was confirmed that the composition for promoting hair growth, including at least one of the nine novel compounds of the present invention as an active ingredient, had the effects on promoting hair growth as desired, and thus it was determined that the composition may be effectively used for preventing and treating hair loss.

Compound: C=CC[C@@H]1/C=C(/C)C[C@H](C)C[C@H](OC)[C@H]2O[C@@](O)(CC(=O)N3CCCC[C@H]3C(=O)O[C@H](/C(C)=C/[C@@H]3CC[C@@H](O)[C@H](O)C3)[C@H](C)[C@@H](O)CC1=O)[C@H](C)C[C@@H]2OC [9-deoxo-31-O-demethyl-FK506, reference compound]
- Immunosuppression IC50 (CD4+ T cells): 15.09 ng/mL

Compound: CCC[C@@H]1/C=C(\C)C[C@H](C)C[C@H](OC)[C@H]2O[C@@](O)(C(=O)C(=O)N3CCCC[C@H]3C(=O)O[C@H](/C(C)=C/[C@@H]3CC[C@@H](O)[C@H](O)C3)[C@H](C)[C@@H](O)CC1=O)[C@H](C)C[C@@H]2OC [31-O-demethyl-36,37-dihydro-FK506]
- Immunosuppression IC50 (CD4+ T cells): 1.723 ng/mL

Compound: 9-deoxo-prolyl-FK506 [reference compound]
- Immunosuppression IC50 (CD4+ T cells): 268.3 ng/mL

Compound: C=CC[C@@H]1/C=C(\C)C[C@H](C)C[C@H](OC)[C@H]2O[C@@](O)(CC(=O)N3CCCC[C@H]3C(=O)O[C@H](/C(C)=C/C3CC[C@@H](O)[C@H](OC)C3)[C@H](C)[C@H](O)CC1=O)[C@H](C)C[C@@H]2OC (stereo partly drawn) [9-deoxo-FK506, reference compound]
- Immunosuppression IC50 (CD4+ T cells): 0.513 ng/mL

Compound: COC1CC(C=C(C)C2OC(=O)C3CCCCN3C(=O)CC3(O)OC(C(OC)CC(C)CC(C)=CC(C)C(=O)CC(O)C2C)C(OC)CC3C)CCC1O (stereo not drawn) [9-deoxo-FK523]
- Immunosuppression IC50 (CD4+ T cells): 1985 ng/mL

Compound: 9-deoxo-31-O-demethyl-prolyl-FK506
- Immunosuppression IC50 (CD4+ T cells): 886.5 ng/mL

Compound: C=CC[C@@H]1/C=C(\C)C[C@H](C)C[C@H](OC)[C@H]2O[C@@](O)(C(=O)C(=O)N3CCCC[C@H]3C(=O)O[C@H](/C(C)=C/[C@@H]3CC[C@@H](O)[C@H](OC)C3)[C@H](C)[C@@H](O)CC1=O)[C@H](C)C[C@@H]2OC [FK506, reference compound]
- IC50 (CD4+ T cells; read-out: Immunosuppression IC50): 0.027 ng/mL (≈ 0.0336 nM)

Compound: CCCC1C=C(C)CC(C)CC(OC)C2OC(O)(CC(=O)N3CCCCC3C(=O)OC(C(C)=CC3CCC(O)C(O)C3)C(C)C(O)CC1=O)C(C)CC2OC (stereo not drawn) [9-deoxo-31-O-demethyl-36,37-dihydro-FK506]
- Immunosuppression IC50 (CD4+ T cells): 45.87 ng/mL

Compound: CC[C@@H]1/C=C(\C)C[C@H](C)C[C@H](OC)[C@H]2O[C@@](O)(C(=O)C(=O)N3CCCC[C@H]3C(=O)O[C@H](/C(C)=C/[C@@H]3CC[C@@H](O)[C@H](O)C3)[C@H](C)[C@@H](O)CC1=O)[C@H](C)C[C@@H]2OC [31-O-demethyl-FK520]
- Immunosuppression IC50 (CD4+ T cells): 3.273 ng/mL

Compound: CCCC1C=C(C)CC(C)CC(OC)C2OC(O)(CC(=O)N3CCCCC3C(=O)OC(C(C)=CC3CCC(O)C(OC)C3)C(C)C(O)CC1=O)C(C)CC2OC (stereo not drawn) [9-deoxo-36,37-dihydro-FK506]
- Immunosuppression IC50 (CD4+ T cells): 14.1 ng/mL

Compound: C=CCC1/C=C(\C)CC(C)CC(OC)C2OC(O)(C(=O)C(=O)N3CCCCC3C(=O)OC(/C(C)=C/C3CCC(O)C(O)C3)C(C)C(O)CC1=O)C(C)CC2OC (stereo not drawn) [31-O-demethyl-FK506, reference compound]
- Immunosuppression IC50 (CD4+ T cells): 0.246 ng/mL

Compound: CCC1C=C(C)CC(C)CC(OC)C2OC(O)(CC(=O)N3CCCCC3C(=O)OC(C(C)=CC3CCC(O)C(OC)C3)C(C)C(O)CC1=O)C(C)CC2OC (stereo not drawn) [9-deoxo-FK520]
- Immunosuppression IC50 (CD4+ T cells): 24.98 ng/mL

Compound: CO[C@H]1C[C@@H](C)C/C(C)=C/[C@@H](C)C(=O)C[C@H](O)[C@@H](C)[C@@H](/C(C)=C/[C@@H]2CC[C@@H](O)[C@H](O)C2)OC(=O)[C@@H]2CCCCN2C(=O)C[C@]2(O)O[C@H]1[C@@H](OC)C[C@H]2C [9-deoxo-31-O-demethyl-FK523]
- Immunosuppression IC50 (CD4+ T cells): 3378 ng/mL

Compound: CC[C@@H]1/C=C(\C)C[C@H](C)C[C@H](OC)[C@H]2O[C@@](O)(CC(=O)N3CCCC[C@H]3C(=O)O[C@H](/C(C)=C/[C@@H]3CC[C@@H](O)[C@H](O)C3)[C@H](C)[C@@H](O)CC1=O)[C@H](C)C[C@@H]2OC [9-deoxo-31-O-demethyl-FK520]
- Immunosuppression IC50 (CD4+ T cells): 258.1 ng/mL
- expression of growth marker (Ki67) of cells compared to an untreated group (vibrissae tissue of mice): overexpressed
